According to patent US20250313572A1, “MACROCYCLIC MCL-1 INHIBITORS AND METHODS OF USE” (AbbVie Inc., priority 2017, published 2025):
Read-outs that look alike come from different tables or passages of the source.

What was measured:
GST-MCL-1 = GST-MCL-1 (Homo sapiens, UniProt Q07820); experiment: TR-FRET MCL-1 binding assay (competition with probe F-Bak)
Summary of the method: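 Displacement of F-Bak from GST-MCL-1 is detected by time-resolved FRET with a Tb-labelled anti-GST antibody, with excitation 340/35 nm and emission 520/525 and 495/510 nm, after 2 hours at room temperature. Compounds were titrated in 11 three-fold steps starting at 25 μM final, in buffer alone or in 10% HS.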

[1] = test system: AMO-1 human multiple myeloma tumor cell line; experiment: AMO-1 cell viability assay (CellTiter-Glo, 24 hours); assay type: cell-based
[2] = test system: NCI-H929 human multiple myeloma tumor cell line; experiment: NCI-H929 cell viability assay (CellTiter-Glo, 24 hours); assay type: cell-based
[3] = MCL-1 Binding Ki (nM, 10% HS), in the presence of 10% HS (human serum)
[4] = without HS, read-out: MCL-1 Binding Ki
[5] = Homo sapiens, AMO1, 24 h, read-out: AMO-1 Viability IC50 (μM, 10% FBS), 10% FBS, 24 hours of compound treatment
[6] = Homo sapiens, NCI-H929, 24 h, read-out: H929 Viability IC50 (μM, 10% FBS), 10% FBS, 24 hours of compound treatment

Chain of GST-MCL-1 (Q07820 whole entry): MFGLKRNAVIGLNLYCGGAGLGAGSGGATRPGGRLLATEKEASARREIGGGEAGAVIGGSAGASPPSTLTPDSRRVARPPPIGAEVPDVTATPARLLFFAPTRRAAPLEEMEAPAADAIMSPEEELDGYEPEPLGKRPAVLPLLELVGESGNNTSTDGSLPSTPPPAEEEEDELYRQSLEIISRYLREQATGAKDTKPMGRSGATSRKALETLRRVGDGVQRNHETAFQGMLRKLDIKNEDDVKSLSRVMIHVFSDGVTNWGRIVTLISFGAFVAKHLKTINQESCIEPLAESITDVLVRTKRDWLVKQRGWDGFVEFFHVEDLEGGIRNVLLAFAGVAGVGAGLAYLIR

SMILES | Ki (GST-MCL-1; [3]) [nM] | Ki (GST-MCL-1; [4]) [nM] | IC50 [1, 5] [µM] | IC50 [2, 6] [µM] | IC50 ([1]; read-out: AMO-1 Viability IC50 (μM, 10% FBS), 10% FBS, 24 hours of compound treatment) [µM] | IC50 ([2]; read-out: H929 Viability IC50 (μM, 10% FBS), 10% FBS, 24 hours of compound treatment) [µM]
Cc1c(Cl)c2c(Cl)c(C)c1-c1c(-c3ccc(F)cc3)sc3ncnc(c13)O[C@@H](C(=O)O)Cc1cc(ccc1OCc1ccnc(-c3ccc(OC[C@@H]4CN(C)CCO4)cc3)n1)OC[C@@H](CN1CCN(C)CC1)O2 [Example 157, (7R,16R)-19,23-dichloro-1-(4-fluorophenyl)-20,22-dimethyl-10-{[2-(4-{[(2S)-4-methylmorpholin-2-yl]methoxy}phenyl)pyrimidin-4-yl]methoxy}-16-[(4-methylpiperazin-1-yl)methyl]-7,8,15,16-tetrahydro-18,21-etheno-9,13-(metheno)-6,14,17-trioxa-2-thia-3,5-diazacyclononadeca[1,2,3-cd]indene-7-carboxylic Acid] | 0.168 | 0.008 | 0.000233 | 0.000821 | – | –
COCCOCCOCCOCCOCCOCC1(F)CC=C(c2nccc(COc3ccc4cc3C[C@H](C(=O)O)Oc3ncnc5sc(-c6ccc(F)cc6)c(c35)-c3c(C)c(Cl)c(c(Cl)c3C)O[C@H](CN3CCN(C)CC3)CO4)n2)CC1 (single isomer, unassigned) [Example 100, (7R,16R)-19,23-dichloro-10-({2-[(4R*)-4-fluoro-4-(2,5,8,11,14,17-hexaoxaoctadecan-1-yl)cyclohex-1-en-1-yl]pyrimidin-4-yl}methoxy)-1-(4-fluorophenyl)-20,22-dimethyl-16-[(4-methylpiperazin-1-yl)methyl]-7,8,15,16-tetrahydro-18,21-etheno-13,9-(metheno)-6,14,17-trioxa-2-thia-3,5-diazacyclononadeca[1,2,3-cd]indene-7-carboxylic Acid] | 0.176 | 0.017 | – | – | 0.00033 | 0.000547
COCCOCCOCCC1CCN(c2nccc(COc3ccc4cc3C[C@H](C(=O)O)Oc3ncnc5sc(-c6ccc(F)cc6)c(c35)-c3c(C)c(Cl)c(c(Cl)c3C)O[C@H](CN3CCN(C)CC3)CO4)n2)CC1 [Example 52, (7R,16R)-19,23-dichloro-1-(4-fluorophenyl)-10-{[2-(4-{2-[2-(2-methoxyethoxy)ethoxy]ethyl}piperidin-1-yl)pyrimidin-4-yl]methoxy}-20,22-dimethyl-16-[(4-methylpiperazin-1-yl)methyl]-7,8,15,6-tetrahydro-18,21-etheno-9,13-(metheno)-6,14,17-trioxa-2-thia-3,5-diazacyclononadeca[1,2,3-cd]indene-7-carboxylic Acid] | 3.31 | 0.348 | 0.000648 | 0.00269 | – | –
COCCOCCOC[C@H]1CC[C@H](c2nccc(COc3ccc4cc3C[C@H](C(=O)O)Oc3ncnc5sc(-c6ccc(F)cc6)c(c35)-c3c(C)c(Cl)c(c(Cl)c3C)O[C@H](CN3CCN(C)CC3)CO4)n2)CC1 [Example 160, (7R,16R)-19,23-dichloro-1-(4-fluorophenyl)-10-({2-[(1r,4r)-4-{[2-(2-methoxyethoxy)ethoxy]methyl}cyclohexyl]pyrimidin-4-yl}methoxy)-20,22-dimethyl-16-[(4-methylpiperazin-1-yl)methyl]-7,8,15,16-tetrahydro-18,21-etheno-13,9-(metheno)-6,14,17-trioxa-2-thia-3,5-diazacyclononadeca[1,2,3-cd]indene-7-carboxylic Acid] | 0.083 | 0.005 | 0.000116 | 0.000206 | – | –
Cc1c(Cl)c2c(Cl)c(C)c1-c1c(-c3ccc(F)cc3)sc3ncnc(c13)O[C@@H](C(=O)O)Cc1cc(ccc1OCc1ccnc(N3CC(C(CO)CO)C3)n1)OC[C@@H](CN1CCN(C)CC1)O2 [Example 65, (7R,16R)-19,23-dichloro-10-({2-[3-(1,3-dihydroxypropan-2-yl)azetidin-1-yl]pyrimidin-4-yl}methoxy)-1-(4-fluorophenyl)-20,22-dimethyl-16-[(4-methylpiperazin-1-yl)methyl]-7,8,15,16-tetrahydro-18,21-etheno-9,13-(metheno)-6,14,17-trioxa-2-thia-3,5-diazacyclononadeca[1,2,3-cd]indene-7-carboxylic Acid] | 0.65 | 0.195 | 0.0209 | 0.0596 | – | –
Cc1c(Cl)c2c(Cl)c(C)c1-c1c(-c3ccc(F)cc3)sc3ncnc(c13)O[C@@H](C(=O)O)Cc1cc(ccc1OCc1ccnc(N3CCC(CC(=O)O)CC3)n1)OC[C@@H](CN1CCN(C)CC1)O2 [Example 49, (7R,16R)-10-({2-[4-(carboxymethyl)piperidin-1-yl]pyrimidin-4-yl}methoxy)-19,23-dichloro-1-(4-fluorophenyl)-20,22-dimethyl-16-[(4-methylpiperazin-1-yl)methyl]-7,8,15,16-tetrahydro-18,21-etheno-13,9-(metheno)-6,14,17-trioxa-2-thia-3,5-diazacyclononadeca[1,2,3-cd]indene-7-carboxylic Acid] | 0.775 | 0.039 | 0.0222 | 0.0431 | – | –
COCCOCCOCCOc1cccc(COc2ccc3cc2C[C@H](C(=O)O)Oc2ncnc4sc(-c5ccc(F)cc5)c(c24)-c2c(C)c(Cl)c(c(Cl)c2C)O[C@H](CN2CCN(C)CC2)CO3)n1 [Example 99, (7R,16R)-19,23-dichloro-1-(4-fluorophenyl)-10-[(6-{2-[2-(2-methoxyethoxy)ethoxy]ethoxy}pyridin-2-yl)methoxy]-20,22-dimethyl-16-[(4-methylpiperazin-1-yl)methyl]-7,8,15,16-tetrahydro-18,21-etheno-9,13-(metheno)-6,14,17-trioxa-2-thia-3,5-diazacyclononadeca[1,2,3-cd]indene-7-carboxylic Acid] | 6.17 | 0.543 | 0.000655 | 0.00269 | – | –
Cc1c(Cl)c2c(Cl)c(C)c1-c1c(-c3ccc(F)cc3)sc3ncnc(c13)O[C@@H](C(=O)O)Cc1cc(ccc1OCc1ccnc(-c3cccc(CN4CCOCC4)c3)n1)OC[C@@H](CN1CCN(C)CC1)O2 [Example 147, (7R,16R)-19,23-dichloro-1-(4-fluorophenyl)-20,22-dimethyl-16-[(4-methylpiperazin-1-yl)methyl]-10-[(2-{3-[(morpholin-4-yl)methyl]phenyl}pyrimidin-4-yl)methoxy]-7,8,15,16-tetrahydro-18,21-etheno-13,9-(metheno)-6,14,17-trioxa-2-thia-3,5-diazacyclononadeca[1,2,3-cd]indene-7-carboxylic Acid] | 0.098 | 0.002 | 0.000204 | 0.000162 | – | –
Cc1c(Cl)c2c(Cl)c(C)c1-c1c(-c3ccc(F)cc3)sc3ncnc(c13)O[C@@H](C(=O)O)Cc1cc(ccc1OCc1ccnc(N3CC4CC(C4)C3)n1)OC[C@@H](CN1CCN(C)CC1)O2 [Example 171, (7R,16R)-10-{[2-(3-azabicyclo[3.1.1]heptan-3-yl)pyrimidin-4-yl]methoxy}-19,23-dichloro-1-(4-fluorophenyl)-20,22-dimethyl-16-[(4-methylpiperazin-1-yl)methyl]-7,8,15,16-tetrahydro-18,21-etheno-13,9-(metheno)-6,14,17-trioxa-2-thia-3,5-diazacyclononadeca[1,2,3-cd]indene-7-carboxylic Acid] | 3.98 | 0.1 | 0.00112 | 0.00757 | – | –
COCCOCCOCCOCCOCCOCCOCCOCCOCCOCCOCCOCCOCC1(c2nccc(COc3ccc4cc3C[C@H](C(=O)O)Oc3ncnc5sc(-c6ccc(F)cc6)c(c35)-c3c(C)c(Cl)c(c(Cl)c3C)O[C@H](CN3CCN(C)CC3)CO4)n2)CCC1 [Example 44, (7R,16R)-19,23-dichloro-1-(4-fluorophenyl)-20,22-dimethyl-16-[(4-methylpiperazin-1-yl)methyl]-10-({2-[1-(2,5,8,11,14,17,20,23,26,29,32,35,38-tridecaoxanonatriacontan-1-yl)cyclobutyl]pyrimidin-4-yl}methoxy)-7,8,15,16-tetrahydro-18,21-etheno-13,9-(metheno)-6,14,17-trioxa-2-thia-3,5-diazacyclononadeca[1,2,3-cd]indene-7-carboxylic Acid] | 0.224 | 0.124 | 0.0211 | 0.0179 | – | –
Cc1c(Cl)c2c(Cl)c(C)c1-c1c(-c3ccc(F)cc3)sc3ncnc(c13)O[C@@H](C(=O)O)Cc1cc(ccc1OCc1ccnc(N3CCC(F)(COCCOCC4COCCO4)CC3)n1)OC[C@@H](CN1CCN(C)CC1)O2 (stereo partly drawn) [Example 91, (7R,16R)-19,23-dichloro-10-({2-[4-({2-[(1,4-dioxan-2-yl)methoxy]ethoxy}methyl)-4-fluoropiperidin-1-yl]pyrimidin-4-yl}methoxy)-1-(4-fluorophenyl)-20,22-dimethyl-16-[(4-methylpiperazin-1-yl)methyl]-7,8,15,16-tetrahydro-18,21-etheno-13,9-(metheno)-6,14,17-trioxa-2-thia-3,5-diazacyclononadeca[1,2,3-cd]indene-7-carboxylic Acid] | 2.1 | 0.231 | 0.00072 | 0.00192 | – | –
